The experiment relates to LPS-mediated NO release in BV-2 microglial cells. In words: Griess assay: cellular NO release after LPS treatment. The format is cell-based, murine. As to the method: Cellular secretion of nitric oxide (NO) was quantified with the Griess assay. BV-2 cells were seeded on a clear flat bottom TC-treated 96-well plate (Corning; #3598) and sealed with breathable sealing tape (Axygen; BF-400-S). After 18 h, BV-2 cells were treated with compounds in the absence or presence of 100 ng/mL LPS (Sigma; L4391). After 24 h, 50 μL of the cell culture media was mixed with the same volume of Griess reagent {0.1% naphthylethylenediamine dihydrochloride (Sigma; #222488) and 1% sulfanilamide (Sigma; S9251) in 4% phosphoric acid (Daejung; #6532-4405)}. Absorbance at 550 nm was measured using a microplate reader (BioTek; Synergy). Sodium nitrite (Alfa Aesar; A18668) was used for standard curve generation.
Microglia are tissue-resident macrophages involved in CNS immunosurveillance[3],[39]. Microglial activation induces proinflammatory cytokine tumor necrosis factor α (TNF-α) expression, resulting in neural toxicity[5],[6]. Therefore, the inhibition of microglial activation is critical for regulating neuroinflammation. To discover anti-neuroinflammatory NCEs, we monitored the cellular release of nitric oxide (NO) in response to lipopolysaccharide (LPS) treatment as a mimic of pathogenic activation of innate immune systems upon compound treatment in BV-2 cells using the Griess assay.

The text below walks through data of article PMC9743128, “Phenotype-based screening rediscovered benzopyran-embedded microtubule inhibitors as anti-neuroinflammatory agents by modulating the tubulin–p65 interaction” (Experimental & Molecular Medicine, 2022).

For `COc1ccc2c(c1O)OC(C)(C)C=C2c1cccc2c1oc1ccccc12` [Compound 8], the inhibition at 10 µM (Mus musculus, 10 μM, BV-2 cells, LPS, read-out: % NO inh. at 10 μM) worked out at 102%. For the setting “Mus musculus, BV-2 cells, 100 ng/mL LPS, 24 h”, the IC50 worked out at 1130 nM. In addition, the “Anti-neuroinflammatory activity in compensated Griess assay with Taxol” value (SB26019 5 μM, with or without tubulin stabilizer Taxol) is listed as “attenuated in the presence of Taxol in a dose-dependent manner”.
